Results as given in BindingDB's records for doi:10.1021/jm5006226 (Bristol Myers Squibb, 2014).

test: Antagonist activity at P2Y1 receptor in platelet-enriched human plasma assessed as 10 uM ADP-induced platelet aggregation preincubated for 1 min followed by ADP induction measured at 5 mins by aggregometric analysis

Structure (SMILES) | IC50
CCOC(=O)C1(C)CN(c2ccccc2NC(=O)Nc2ccc(OC(F)(F)F)cc2)c2c(O)ccc(Cl)c21 (stereo not drawn) | 3100 nM
CC1(C)CN(c2ccccc2NC(=O)Nc2ccc(OC(F)(F)F)cc2)c2c(O)cc(F)c(-c3ccc(F)cc3)c21 | 190 nM
CC1(C)CN(c2ccccc2NC(=O)Nc2ccc(OC(F)(F)F)cc2)c2c(O)ccc(-c3cc(F)cc(F)c3)c21 | 180 nM
CC1(C)CN(c2ccccc2NC(=O)Nc2csc(Cl)n2)c2c(O)ccc(-c3ccc(F)cc3)c21 | 90 nM
CC1(C)CN(c2ccccc2NC(=O)Nc2ccc(OC(F)(F)F)cc2)c2c(O)cc(F)c(-c3cnc(Cl)cn3)c21 | 260 nM
CC1(C)CN(c2ccccc2NC(=O)Nc2ccc(OC(F)(F)F)cc2)c2c(O)cc(F)c(-c3cc(F)nc(F)c3)c21 | 160 nM
CC1(C)CN(c2ccccc2NC(=O)Nc2ccc(OC(F)(F)F)cc2)c2c(O)cc(F)c(-c3ncc(F)cn3)c21 | 950 nM
CC(C)(C)CN1CCC2(CC1)CN(c1ccccc1NC(=O)Nc1ccc(OC(F)(F)F)cc1)c1c(O)cc(F)c(-c3ccc(F)cc3)c12 | 140 nM
CC1(C)CN(c2ccccc2NC(=O)Nc2ccc(OC(F)(F)F)cc2)c2c(O)cc(F)c(-c3ccc(C(F)(F)F)nc3)c21 | 150 nM
CC1(C)CN(c2ccccc2NC(=O)Nc2ccc(OC(F)(F)F)cc2)c2c(O)cc(F)c(-c3ccc(C(F)(F)F)cn3)c21 | 110 nM
CC(C)(C)CN1CCC2(CC1)CN(c1ccccc1NC(=O)Nc1nc3ccc(Cl)nc3s1)c1c(O)cc(F)c(-c3ccc(F)cc3)c12 | 180 nM
CC1(C)CN(c2ccccc2NC(=O)Nc2ccc(OC(F)(F)F)cc2)c2c(O)ccc(-c3ccccc3)c21 | 180 nM
CC1(C)CN(c2ccccc2NC(=O)Nc2ccc(OC(F)(F)F)cc2)c2c(O)c(F)cc(-c3ccc(Cl)cc3)c21 | 300 nM
CC1(C)CN(c2ccccc2NC(=O)Nc2ccc(OC(F)(F)F)cc2)c2c(O)ccc(-c3ccc(C(F)(F)F)cc3)c21 | 230 nM
CCOC(=O)C1(C)CN(c2ccccc2NC(=O)Nc2nc3ccc(Cl)nc3s2)c2c(O)ccc(Cl)c21 (stereo not drawn) | 610 nM
CC1(C)CN(c2ccccc2NC(=O)Nc2ccc(OC(F)(F)F)cc2)c2c(O)c(F)cc(-c3ccc(F)cc3)c21 | 390 nM
CC(C)(C)CN1CCC2(CC1)CN(c1ccccc1NC(=O)Nc1ccc(OC(F)(F)F)cc1)c1c(O)cc(F)c(-c3ccc(Cl)cc3)c12 | 200 nM

Structure (SMILES) | IC50
CC1(C)CN(c2ccccc2NC(=O)Nc2ccc(OC(F)(F)F)cc2)c2c(O)ccc(-c3ccc(F)c(F)c3)c21 | 400 nM
CC1(C)CN(c2ccccc2NC(=O)Nc2ccc(OC(F)(F)F)cc2)c2c(O)ccc(Cl)c21 | 870 nM
CC1(C)CN(c2ccccc2NC(=O)Nc2ccc(OC(F)(F)F)cc2)c2c(O)ccc(-c3ccc(F)cc3)c21 | 160 nM
CC1(C)CN(c2ccccc2NC(=O)Nc2nc3ccc(Cl)nc3s2)c2c(O)ccc(Cl)c21 | 1400 nM
CC(C)(C)CN1CCC2(CC1)CN(c1ccccc1NC(=O)Nc1nc3ccc(Cl)nc3s1)c1c(O)ccc(Cl)c12 | 130 nM
CC(C)(C)CN1CCCC1c1ccc(NC(=O)Nc2ccccc2N2CC(C)(C)c3c(-c4ccc(F)cc4)ccc(O)c32)cc1 (stereo not drawn) | 90 nM
CC1(C)CN(c2ccccc2NC(=O)Nc2ccc(OC(F)(F)F)cc2)c2c(O)cc(F)c(-c3ccc(Cl)cc3)c21 | 240 nM
CC1(C)CN(c2ccccc2NC(=O)Nc2nc3ccc(Cl)nc3s2)c2c(O)ccc(-c3ccc(F)cc3)c21 | 230 nM
CC1(C)CN(c2ccccc2NC(=O)Nc2ccc(OC(F)(F)F)cc2)c2c(O)cc(F)c(-c3ccc(Cl)s3)c21 | 130 nM
CC1(C)CN(c2ccccc2NC(=O)Nc2ccc(OC(F)(F)F)cc2)c2c(O)ccc(-c3ccc(Cl)cc3)c21 | 210 nM
Cc1nc(NC(=O)Nc2ccccc2N2CC(C)(C)c3c(-c4ccc(F)cc4)ccc(O)c32)cs1 | 430 nM
CC1(C)CN(c2ccccc2NC(=O)Nc2ccc(OC(F)(F)F)cc2)c2c(O)ccc(-c3ccccc3F)c21 | 80 nM
CC1(C)CN(c2ccccc2NC(=O)Nc2ccc(OC(F)(F)F)cc2)c2c(O)ccc(-c3ccc(F)cc3F)c21 | 160 nM
CC1(CC(F)(F)F)CN(c2ccccc2NC(=O)Nc2ccc(OC(F)(F)F)cc2)c2c(O)ccc(Cl)c21 (stereo not drawn) | 2900 nM
CC(C)CN1CCCC1c1ccc(NC(=O)Nc2ccccc2N2CC(C)(C)c3c(-c4ccc(F)cc4)ccc(O)c32)cc1 (stereo not drawn) | 50 nM
CC1(C)CN(c2ccccc2NC(=O)Nc2ccc(OC(F)(F)F)cc2)c2c(O)ccc(-c3cccc(F)c3)c21 | 240 nM
